{"source": "patent US20090105301A1", "about": "“9A-SUBSTITUTED AZALIDES FOR THE TREATMENT OF MALARIA” (priority 2006, published 2009)", "key": {"[1]": {"test_system": "Plasmodium cynomolgi", "details": "rhesus monkey; cited from earlier work"}, "[2]": {"test_system": "Plasmodium berghei", "details": "cited from earlier work"}, "[3]": {"test_system": "Plasmodium yoelii nigeriensis", "details": "cited from earlier work"}, "[4]": {"test_system": "Plasmodium falciparum strain W2", "assay": "In vitro screening protocol II, [3H] hypoxanthine incorporation IC50 assay, W2", "type": "cell-based", "details": "P. falciparum W2; for IC50: Plasmodium falciparum", "method": "(§1) The protocol described here is a modification of the in vitro screening protocol I and the details of the methodology are given below.\n(§2) Plasmodium falciparum strains 3D7A and W2.\n(§3) The culture medium comprised RPMI 1640 with 25 mM HEPES, sodium bicarbonate and glutamine (GIBCO™ cat. ref.: 52400), supplemented with 10% of pooled human sera AB (Bioreclamation HMSRM-AB)) and HT supplement (0.15 mM hypoxanthine and 24 μM thymidine), (GIBCO™ cat. ref.: 41065). Human sera were decomplemented 30 min. at 56° C., aliquoted and stored frozen at −20° C. until use in this culture medium.\n(§4) This culture medium (“complete medium”) was usually prepared fresh just before use and pre-warmed to 37° C.\n(§5) Red blood cells AB− stock suspensions were prepared from whole blood bags coming from incomplete blood donation, provided by the Spanish Red Cross (<25 days after sampling). This “whole blood” was aliquoted and stored at 4° C.\n(§6) To prepare red blood cells for the assay, the whole blood was centrifuged and washed 3 times with RPMI without serum. The upper phase, containing white blood cells was removed. The washed red blood cells were kept as a 50% suspension in complete medium. The prepared cells were stored at 4° C. and were employed in the assay at any time up to 4 days after preparation.\n(§7) Test compounds were dissolved at 2 mg/ml in 100% DMSO on the day of the assay. If necessary, complete dissolution was achieved by gentle heating (the mixture was heated at a temperature <37° C.) and sonication (sonication bath).\n(§8) For IC50 determinations, 10 serial 2-fold dilutions were prepared in complete medium in the presence of a constant amount of DMSO. Any obvious signs of insolubility of the stock solutions in 100% DMSO or precipitation when these solutions were diluted in assay media, were recorded.\n(§9) Plasmodium falciparum strains were maintained in complete medium at 5% of hematocrit in continuous culture using a method adapted from Trager W. and Jensen J. B. (Human malaria parasites in continuous culture Science 193 (4254) (1976) 673-675) and Trager W. (Cultivation of malaria parasites Methods Cell Biol. 45 (1994) 7-26).\n(§10) The parasitemia was calculated by counting the percentage of parasitized erythrocytes by optical microscopy. Thin films of blood were made every day from each culture flask, fixed with methanol and stained for 10 min. in Giemsa (Merck, cat ref.: 1.09204) at 10% in buffered water pH 7.2. The glass slides were observed and counted with an optical microscope (Nikon, Eclipse E200) equipped with a 100× immersion oil objective.\n(§11) The culture was maintained at 5% of hematocrit, with a daily change of medium and was diluted when parasitemia had reached about 5%.\n(§12) [^3H] Hypoxanthine incorporation assay was conducted using a method adapted from Desjardins R. E. et al. (Quantitative assessment of antimalarial activity in vitro by a semiautomated microdilution technique. Antimicrob. Agents Chemother., 16 (6) (1979) 710-718). The assays were performed in 96 wells flat bottom microplates.\n(§13) 1. Serial dilutions of each test compound (25 μl of a 5× solution/well) were deposited in one row of assay microtiter plate. Compounds of this invention were tested in this assay. Chloroquine and Azithromycin were used as control compounds for each assay.\n(§14) 2. […] 100 μl of the resulting suspension was distributed into each well of columns 1-11 of assay microtiter plate leading to a final volume of 125 μl per well, at 1.2% of hematocrit and 0.4% of parasitemia/well.\n(§15) 3. In each plate, 2 columns were reserved for control wells: • Column 11 (comprising wells A11-H11): Positive control wells: Untreated PRBCs to compare with cultures treated with test compounds. • Column 12 (comprising wells A12-H12): • Background value wells: Uninfected RBCs—blank control to obtain the background reading from RBCs without parasites (at 1.2% of hematocrite value).\n(§16) 4. The plates were incubated at 37° C. under low oxygen atmosphere. […]"}, "[5]": {"test_system": "P. falciparum TM91C235", "assay": "In vitro screening protocol I, [3H]-hypoxanthine incorporation, TM91C235", "type": "cell-based, Plasmodium falciparum", "details": "In vitro screening protocol I, P. falciparum TM91C235; for IC50: Plasmodium falciparum, read-out: IC50 TM91C235"}, "[6]": {"test_system": "P. falciparum D6 (CDC/Sierra Leone I, D-6)", "assay": "In vitro screening protocol I, [3H]-hypoxanthine incorporation, D6", "type": "cell-based, Plasmodium falciparum", "details": "In vitro screening protocol I, P. falciparum D6; for IC50: Plasmodium falciparum, read-out: IC50 D6", "method_in_brief": "(§17)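 Asexual blood-stage P. falciparum was cultured in human A+ erythrocytes at 37 °C under 5% CO2/5% O2, and growth was measured by [3H]-hypoxanthine incorporation over 72 h total. TM91C235 was prescreened at 25,000, 2,500 and 25 ng/ml in folate-free medium. D-6 and W-2 IC50s came from 11-point two-fold dilutions by logistic fit.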"}, "[7]": {"test_system": "Plasmodium falciparum strain 3D7A", "assay": "In vitro screening protocol II, [3H] hypoxanthine incorporation IC50 assay, 3D7A", "type": "cell-based", "details": "P. falciparum 3D7A", "method": "as §1, §2, §3, §4, §5, §6, §7, §8, §9, §10, §11, §12, §13, §14, §15, §16"}, "[8]": {"test_system": "P. falciparum W2 (CDC/Indochina III, W-2)", "assay": "In vitro screening protocol I, [3H]-hypoxanthine incorporation, W2", "type": "cell-based, Plasmodium falciparum", "details": "In vitro screening protocol I, P. falciparum W2; for IC50: Plasmodium falciparum, read-out: IC50 W2", "method_in_brief": "as §17"}, "[9]": {"test_system": "Plasmodium vivax", "details": "non-immune patients, as compared to controls; cited from earlier work"}, "[10]": {"test_system": "Plasmodium falciparum", "details": "non-immune patients, as compared to controls; cited from earlier work"}}}
{"compound": "midecamycinin", "values": [{"measurement": "efficacy in monkey model", "setting": "[1]", "value": "no efficacy"}, {"measurement": "activity in mouse model", "setting": "[2]", "value": "active"}, {"measurement": "activity in mouse model", "setting": "[3]", "value": "active"}]}
{"compound": "CC[C@H]1OC(=O)[C@H](C)[C@@H](O[C@H]2C[C@@](C)(OC)[C@@H](O)[C@H](C)O2)[C@H](C)[C@@H](O[C@@H]2O[C@H](C)C[C@H](N(C)C)[C@H]2O)[C@](C)(O)C[C@@H](C)CN(CCCNCc2cccc3ccccc23)[C@H](C)[C@@H](O)[C@]1(C)O", "note": "[Example 8, 9a-{3-[(Naphtalen-1-yl-methyl)amino]propyl}-9-deoxo-9-dihydro-9a-aza-9a-homoerythromycin A]", "values": [{"measurement": "IC50", "setting": "[4]", "value": "< 0.1", "unit": "µg/mL"}, {"measurement": "IC50", "setting": "[5]", "value": "< 0.1", "unit": "µg/mL"}, {"measurement": "IC50", "setting": "[6]", "value": "< 0.1", "unit": "µg/mL"}, {"measurement": "IC50", "setting": "[7]; Plasmodium falciparum", "value": "0.1 to 0.2", "unit": "µg/mL"}, {"measurement": "IC50", "setting": "[8]", "value": "< 0.1", "unit": "µg/mL"}]}
{"compound": "CC[C@H]1OC(=O)[C@H](C)[C@@H](O[C@H]2C[C@@](C)(OC)[C@@H](O)[C@H](C)O2)[C@H](C)[C@@H](O[C@@H]2O[C@H](C)C[C@H](N(C)C)[C@H]2O)[C@](C)(O)C[C@@H](C)CN(C)[C@H](C)[C@@H](O)[C@]1(C)O", "note": "[azithromycin, reference compound]", "values": [{"measurement": "prophylactic efficacy", "setting": "[9]", "value": 98.9, "unit": "%"}, {"measurement": "efficacy in monkey model", "setting": "[1]", "value": "active"}, {"measurement": "IC50", "setting": "[4]", "value": "2.5 to 2.8", "unit": "µg/mL"}, {"measurement": "IC50", "setting": "[5]", "value": "3.5 to 5", "unit": "µg/mL"}, {"measurement": "prophylactic efficacy", "setting": "[10]", "value": 71.6, "unit": "%"}, {"measurement": "IC50", "setting": "[6]", "value": "1 to 2.5", "unit": "µg/mL"}, {"measurement": "IC50", "setting": "[8]", "value": "2.8 to 3.5", "unit": "µg/mL"}]}
{"compound": "CC[C@H]1OC(=O)[C@H](C)[C@@H](O)[C@H](C)[C@@H](O[C@@H]2O[C@H](C)C[C@H](N(C)C)[C@H]2O)[C@](C)(O)C[C@@H](C)CN(CCCNCc2ccnc3ccccc23)[C@H](C)[C@@H](O)[C@]1(C)O", "note": "[Example 15, 9a-{3-[(Quinolin-4-yl-methyl)amino]propyl}-3-O-decladinosyl-9-deoxo-9-dihydro-9a-aza-9a-homoerythromycin A]", "values": [{"measurement": "IC50 W2", "setting": "[4]", "value": "C (200 < X ≦ 1000)"}, {"measurement": "IC50 TM91C235", "setting": "[5]", "value": "C (200 < X ≦ 1000)"}, {"measurement": "IC50 D6", "setting": "[6]", "value": "B (100 < X ≦ 200)"}, {"measurement": "IC50 3D7A", "setting": "[7]", "value": "C (200 < X ≦ 1000)"}, {"measurement": "IC50 W2", "setting": "[8]", "value": "B (100 < X ≦ 200)"}]}
{"compound": "CCC1OC(=O)C(C)C(OC2CC(C)(OC)C(O)C(C)O2)C(C)C(OC2OC(C)CC(N(C)C)C2O)C(C)(O)CC(C)CN(CCCNC(=O)c2cc(F)c(F)c(OC)c2F)C(C)C(O)C1(C)O.O=CO", "note": "(stereo not shown) [Example 59, 9a-[3-({[2,4,5-Trifluoro-3-(methyloxy)phenyl]carbonyl}amino)propyl]-9-deoxo-9-dihydro-9a-aza-9a-homoerythromycin A Formiate Salt]", "values": [{"measurement": "IC50 W2", "setting": "[4]", "value": "B (100 < X ≦ 200)"}, {"measurement": "IC50 3D7A", "setting": "[7]", "value": "D (1000 < X ≦ 2500)"}]}
{"compound": "CCC1OC(=O)C(C)C(OC2CC(C)(OC)C(O)C(C)O2)C(C)C(OC2OC(C)CC(N(C)C)C2O)C(C)(O)CC(C)CN(CCCNC(=O)c2cc(Cl)ccc2[N+](=O)[O-])C(C)C(O)C1(C)O.O=CO", "note": "(stereo not shown) [Example 66, 9a-(3-{[(5-Chloro-2-nitrophenyl)carbonyl]amino}propyl)-9-deoxo-9-dihydro-9a-aza-9a-homoerythromycin A Formiate Salt]", "values": [{"measurement": "IC50 W2", "setting": "[4]", "value": "C (200 < X ≦ 1000)"}, {"measurement": "IC50 3D7A", "setting": "[7]", "value": "D (1000 < X ≦ 2500)"}]}
{"compound": "CCC1OC(=O)C(C)C(OC2CC(C)(OC)C(O)C(C)O2)C(C)C(OC2OC(C)CC(N(C)C)C2O)C(C)(O)CC(C)CN(CCCNC(=O)CCC(=O)c2ccccc2)C(C)C(O)C1(C)O.O=CO", "note": "(stereo not shown) [Example 65, 9a-{3-[(4-Oxo-4-phenylbutanoyl)amino]propyl}-9-deoxo-9-dihydro-9a-aza-9a-homoerythromycin A Formiate Salt]", "values": [{"measurement": "IC50 W2", "setting": "[4]", "value": "D (1000 < X ≦ 2500)"}, {"measurement": "IC50 3D7A", "setting": "[7]", "value": "G (3500 < X ≦ 5000)"}]}
{"compound": "CC(=O)O.CC(=O)O.CC(=O)O.CCC1OC(=O)C(C)C(O)C(C)C(OC2OC(C)CC(N(C)C)C2O)C(C)(O)CC(C)CN(CCCNc2ccnc3cc(Cl)ccc23)C(C)C(O)C1(C)O", "note": "(stereo not shown) [Example 79]", "values": [{"measurement": "IC50 W2", "setting": "[4]", "value": "A (X ≦ 100)"}, {"measurement": "IC50 3D7A", "setting": "[7]", "value": "A (X ≦ 100)"}]}
